{
  "source": "ChEMBL document CHEMBL1154239",
  "about": "“Captopril and 6-mercaptopurine: whose SH possesses higher antioxidant ability?” (Eur J Med Chem, 2009)",
  "key": {"[1]": {"test": "Antioxidant activity assessed as protection against hemin-induced erythrocytes hemolysis at 0.6 uM", "assay_type": "functional", "conditions": "Erythrocyte"}, "[2]": {"test": "Antioxidant activity assessed as ABTS radical scavenging activity", "assay_type": "functional"}, "[3]": {"tested_on": "Radical scavenging activity", "test": "Antioxidant activity assessed as DPPH radical scavenging activity", "assay_type": "functional"}, "[4]": {"test": "Antioxidant activity assessed as galvinoxyl radical scavenging activity", "assay_type": "functional"}, "[5]": {"test": "Antioxidant activity against […]-induced DNA damage assessed as inhibition time", "assay_type": "functional"}, "[6]": {"test": "Antioxidant activity against […]-induced hemolysis of erythrocytes assessed as lag time of inhibition", "assay_type": "functional, Erythrocyte"}, "Erythrocyte": {"tested_on": "Erythrocyte", "test": "Antioxidant activity assessed as protection against hemin-induced erythrocytes hemolysis up to 1 uM", "assay_type": "functional, cell-based"}},
  "note": "Activity calls are given as the source filed them. The rule behind the calls is not given here.",
  "data": [
    {"smiles": "C[C@H](CS)C(=O)N1CCC[C@H]1C(=O)O", "note": "[CAPTOPRIL]", "values": [
      {"measurement": "inhibition at 0.6 µM", "setting": "[1]", "value": 80, "unit": "%"},
      {"measurement": "IC50", "setting": "[2]", "value": 6.5, "unit": "µM"},
      {"measurement": "IC50", "setting": "[3]", "value": 43, "unit": "µM"},
      {"measurement": "IC50", "setting": "[4]", "value": 7.1, "unit": "µM"},
      {"measurement": "TIME", "setting": "[5]", "value": 3.38, "unit": "h"},
      {"measurement": "Time", "setting": "[6]", "value": 270, "unit": "min"}
    ]},
    {"smiles": "Sc1ncnc2nc[nH]c12", "note": "[MERCAPTOPURINE ANHYDROUS]", "values": [
      {"measurement": "IC50", "setting": "[2]", "value": 4.7, "unit": "µM"},
      {"measurement": "IC50", "setting": "[3]", "value": 65, "unit": "µM"},
      {"measurement": "Activity", "setting": "Erythrocyte", "value": "inactive"},
      {"measurement": "IC50", "setting": "[4]", "value": 188, "unit": "µM"},
      {"measurement": "TIME", "setting": "[5]", "value": 3, "unit": "h"},
      {"measurement": "Time", "setting": "[6]", "value": 406, "unit": "min"}
    ]},
    {"smiles": "OC[C@H]1O[C@@H](n2cnc3c(S)ncnc32)[C@H](O)[C@@H]1O", "note": "[THIOINOSINE]", "values": [
      {"measurement": "IC50", "setting": "[2]", "value": 3.9, "unit": "µM"},
      {"measurement": "IC50", "setting": "[3]", "value": 180, "unit": "µM"},
      {"measurement": "Activity", "setting": "Erythrocyte", "value": "inactive"},
      {"measurement": "IC50", "setting": "[4]", "value": 65, "unit": "µM"},
      {"measurement": "TIME", "setting": "[5]", "value": 3.12, "unit": "h"},
      {"measurement": "Time", "setting": "[6]", "value": 482, "unit": "min"}
    ]},
    {"smiles": "Cc1c(C)c2c(c(C)c1O)CCC(C)(C(=O)O)O2", "note": "(stereo not given) [TROLOX]", "values": [
      {"measurement": "IC50", "setting": "[2]", "value": 11.6, "unit": "µM"},
      {"measurement": "IC50", "setting": "[3]", "value": 22.8, "unit": "µM"}
    ]}
  ]
}
